Results published in US20240409934A1, “FOXO1-TARGETED THERAPY FOR THE TREATMENT OF CANCER” (BOARD OF REGENTS, THE UNIVERSITY OF TEXAS SYSTEM, priority 2021, published 2024).

Legend:
Type in all cases: cell-based
BT549 cells = experiment: Gene expression by qRT-PCR (TUBB reference)
Protocol: (§1) Cell culture and drug treatments. Cell lines were obtained from ATCC (American Type Culture Collection, Manassas, VA) and grown under standard conditions (5% CO2, 10% FBS (fetal bovine serum), with 5% antifungal/antibacterial). Cell lines were tested for Mycoplasma using the MycoAlert Mycoplasma Detection Kit (Lonza, Basel Switzerland, cat: LT07-218); all experiments were done with mycoplasma negative cells. U87MG cells were propagated in MEM (Minimal Essential Medium). BT549 and DBTRG cells were propagated in RPMI (Roswell Park Memorial Institute 1640 Medium). LN18, U118MG, A172 and LN229 cells were propagated in DMEM (Dulbecco's Modified Eagle Medium). Neurosphere/cancer stem cell cultures for U87MG and BT549 cell lines were plated with 40,000 cells per mL in 3D Tumorsphere Medium XF (Sigma cat: C-28070, Burlington, MA). BT549 cancer stem cell cultures were supplemented with 1XB27 XenoFree CTS (Gibco/Thermo Fisher Waltham, MA, USA). AS1842856 was purchased from Calbiochem (Danvers, MA) and utilized at 200 nM, 500 nM and 1 μM final concentrations as indicated. AS1708727 was purchased from MedChem Express (Monmouth Junction, NJ) and was used at 0.5 μM, 1.0 µM and 2.0 μM concentrations. 5-aza-2'-deoxycytidine (5-AZA) was purchased from Millipore/Sigma (Burlington, MA) and utilized at a final concentration of 3 μM. Total RNA was prepared using the Qiagen RNeasy kit (Hilden, Germany), which was then used to generate cDNA using Superscript Reverse Transcriptase II (Invitrogen, Carlsbad, CA). Samples (cDNAs) were analyzed using (Power SYBR Green Master Mix, Applied Biosystems, Foster City, CA) and the ABI Step-One Real-time system (Carlsbad, CA). Expression levels were normalized to Beta-Tubulin, TUBB in gene expression experiments and calculated using 2-4ACT method (Livak et al., 2001). Primer sequences are detailed in Table 1. MDA-MB-468 cells were grown to log phase in DMEM with 10% FBS without antibiotics. BT549 cells were grown to log phase in DMEM with 10% FBS without antibiotics. Cells were transfected with FOXO1 esiRNA (EHU156591 Sigma, St. Louis, MO) or EGFP control esiRNA (EHUEGFP) using Lipofectamine 3000 (utilized only […] reagent, Invitrogen, Carlsbad, CA).

MDA-MB-468 = experiment: Colony formation assay (crystal violet); settings: treated five days
LN18 = experiment: Colony formation assay (crystal violet); settings: treated five days
Protocol: (§2) Cell culture and drug treatments. Cell lines were obtained from ATCC (American Type Culture Collection, Manassas, VA) and grown under standard conditions (5% CO2, 10% FBS (fetal bovine serum), with 5% antifungal/antibacterial). Cell lines were tested for Mycoplasma using the MycoAlert Mycoplasma Detection Kit (Lonza, Basel Switzerland, cat: LT07-218); all experiments were done with mycoplasma negative cells. U87MG cells were propagated in MEM (Minimal Essential Medium). BT549 and DBTRG cells were propagated in RPMI (Roswell Park Memorial Institute 1640 Medium). LN18, U118MG, A172 and LN229 cells were propagated in DMEM (Dulbecco's Modified Eagle Medium). Neurosphere/cancer stem cell cultures for U87MG and BT549 cell lines were plated with 40,000 cells per mL in 3D Tumorsphere Medium XF (Sigma cat: C-28070, Burlington, MA). BT549 cancer stem cell cultures were supplemented with 1XB27 XenoFree CTS (Gibco/Thermo Fisher Waltham, MA, USA). AS1842856 was purchased from Calbiochem (Danvers, MA) and utilized at 200 nM, 500 nM and 1 μM final concentrations as indicated. AS1708727 was purchased from MedChem Express (Monmouth Junction, NJ) and was used at 0.5 μM, 1.0 µM and 2.0 μM concentrations. 5-aza-2′-deoxycytidine (5-AZA) was purchased from Millipore/Sigma (Burlington, MA) and utilized at a final concentration of 3 μM. Cells were plated at a density of 2,700 cells per mL and were treated five days with indicated drug. Treatments were investigated in triplicate (in numerous independent experiments) and stained with crystal violet. Plates were aspirated of media then each well was washed with 1.0 mL of 1x phosphate buffered saline (PBS) once before being stained with 1.0 mL of crystal violet stain (0.5% crystal violet in buffered formalin) and incubated for 15 minutes. The stain was aspirated, and wells were washed 3 times with 0.5 mL of 1x PBS. After collections were completed, crystal violet-stained plates were solubilized using 0.5 mL on each well of 10% acetic acid and placed on shaker for 1 hour. Solubilized samples were transferred to 96 well plates and quantified on a spectrophotometer at 590 nm. Quantified plates were analyzed with a Tukey test. Error bars were added using the standard deviation. Cells were plated at 2,700 cells per mL and were treated five days with the indicated drug. Treatments were investigated in triplicate (in numerous independent experiments) and stained with crystal violet. Plates were aspirated of media, then each well was washed with 1.0 mL of 1× phosphate-buffered saline (PBS) once before being stained with 1.0 mL of crystal violet stain (0.5% crystal violet in buffered formalin) and incubated for 15 minutes. The stain was aspirated, and cells were washed three times with 0.5 mL of 1×PBS. After collections were completed, crystal violet-stained plates were solubilized using 0.5 mL on each well of 10% acetic acid and placed on a shaker for 1 hour. Solubilized samples were transferred to 96 well plates and quantified on a spectrophotometer at 590 nm using iMark Microplate Absorbance Reader (Bio-Rad, Hercules, CA). Quantified plates were analyzed with a Tukey Test. Error bars were added using the standard deviation.

BT549 = experiment: Colony formation assay (crystal violet); settings: treated five days
Protocol: as §2

MDA-MB-468 cells = experiment: Gene expression by qRT-PCR (TUBB reference)
Protocol: as §1

SMILES	FAS and BIM expression (BT549 cells; 3 μM for 48 hours)	colony formation (MDA-MB-468)	colony formation (LN18)	colony formation (BT549)	FAS and BIM gene induction, comparison of the two inhibitors (BT549 cells)	FAS gene expression (BT549 cells; 1 μM treatment for 4 days)	FAS and BIM gene induction, comparison of the two inhibitors (MDA-MB-468 cells)	FAS gene expression (MDA-MB-468 cells; four days, 1 μM for two days)
Nc1ncn([C@H]2C[C@H](O)[C@@H](CO)O2)c(=O)n1 [5-AZA, 5-aza-2′-deoxycytidine]	induced FAS and BIM							
CN(C(=O)CC1CCCC1)c1ccc(Cl)c(COc2cccc3cnccc23)c1Cl [AS1708727, 2-cyclopentyl-N-[2,4-dichloro-3-(isoquinolin-5-yloxymethyl)phenyl] N-methylacetamide]		reduced colony formation	reduced colony formation	reduced colony formation	only induced the FAS gene	increased FAS gene expression	only induced the FAS gene	increased FAS gene expression
